Experimental findings from patent US7678791B2, “Nitroheteroaryl-containing rifamycin derivatives” (Cumbre IP Ventures, L.P., priority 2006, dated 2010) are described below.

Values after ≈ are worked out from the molar mass of the structure shown. Like-named read-outs stand apart in the source and are kept apart here.

What all share (assay type): cell-based
Test [1] relates to Bacteroides fragilis CB-1621. The experiment in a line: MIC, B. fragilis. The following applies: CB1621.
In test [2] the test system is Helicobacter pylori CB1572 (Rif-resistant, rpoB L525I, D530N). Description: microbe, parasite or virus in culture. The following applies: read-out: MIC H. pylori CB1572 (Rif-resistant). The source says:
(§1) Methods for dilution antimicrobial susceptibility tests for bacteria that grow aerobically, 5th ed. M7-A5. National Committee for Clinical Laboratory Standards, Wayne, Pa.).

The test system of test [3] is Helicobacter pylori ATCC 700392. The experiment in a line: MIC by agar dilution, H. pylori.
Description: as §1

Test [4] relates to Haemophilus influenzae ATCC 10211. The experiment in a line: MIC by microbroth dilution, H. influenzae.
Description: as §1
In general terms: Broth dilution looks for growth in wells or tubes with falling amounts of substance.

For test [5], the system named is Mycobacterium tuberculosis H37Rv. The experiment in a line: MIC, M. tuberculosis.
Test [6] has as its system Staphylococcus aureus ATCC 29213. The experiment in a line: MIC by microbroth dilution, S. aureus.
Description: as §1

The subject of test [7] is Escherichia coli ATCC 25922. The experiment in a line: MIC by microbroth dilution, E. coli.
Description: as §1

Test [8] has as its system Clostridium difficile CB-1620. Description: MIC, C. difficile. The note with it: Clostridioides difficile, CB1620.
Where [9] appears, read: ATCC700392, read-out: MIC H. pylori ATCC# 700392.
Where [10] appears, read: ATCC29213, read-out: MIC S. aureus ATCC# 29213.
Setting [11] is: ATCC25922, read-out: MIC E. coli ATCC# 25922.

`CO[C@H]1/C=C/O[C@@]2(C)Oc3c(C)c(O)c4c(c3C2=O)C2=NC3(CCN(CCn5c([N+](=O)[O-])cnc5C)CC3)NC2=C(NC(=O)/C(C)=C\C=C\[C@H](C)[C@H](O)[C@@H](C)[C@@H](O)[C@@H](C)[C@H](OC(C)=O)[C@@H]1C)C4=O` [Example 1, 4-Deoxy-3,4-[2-spiro-[1-[2-(2-methyl-5-nitro-imidazol-1-yl)ethyl]-piperidin-4-yl]]-(1H)-imidazo-(2,5-dihydro)rifamycin S]: the MIC is 0.03 µg/mL (≈ 0.0318 µM) in test [1]; 0.5 µg/mL (≈ 0.53 µM) in test [2]; ≤ 0.03 µg/mL in test [3] (setting [9]); 1 µg/mL (≈ 1.06 µM) in test [4] (ATCC10211, read-out: MIC H. influenzae ATCC# 10211); 0.016 µg/mL (≈ 0.0169 µM) in test [5]; 0.03 µg/mL (≈ 0.0318 µM) in test [6] (setting [10]). The MIC in test [7] (setting [11]) was 16 µg/mL (≈ 16.9 µM); in test [8], 0.00025 µg/mL (≈ 0.000265 µM).
For the compound `CO[C@H]1/C=C/O[C@@]2(C)Oc3c(C)c(O)c4c(O)c(c(/C=N/N5CCN(CCn6c([N+](=O)[O-])cnc6C)CC5)c(O)c4c3C2=O)NC(=O)/C(C)=C\C=C\[C@H](C)[C@H](O)[C@@H](C)[C@@H](O)[C@@H](C)[C@H](OC(C)=O)[C@@H]1C` [Example 3, 3-[[[4-[2-(2-methyl-5-nitro-imidazol-1-yl)ethyl]-1-piperazinyl]imino]methyl]rifamycin SV], the values for the MIC in test [2], in test [3] (setting [9]) and in test [6] (setting [10]) were 2 µg/mL (≈ 2.08 µM), 0.5 µg/mL (≈ 0.52 µM) and 0.03 µg/mL (≈ 0.0312 µM), respectively.
On to `CO[C@H]1/C=C/O[C@@]2(C)Oc3c(C)c(O)c4c(=O)c(c5oc6cc(N7CCN(CCn8c([N+](=O)[O-])cnc8C)CC7)cc(O)c6nc-5c4c3C2=O)NC(=O)/C(C)=C\C=C\[C@H](C)[C@H](O)[C@@H](C)[C@@H](O)[C@@H](C)[C@H](OC(C)=O)[C@@H]1C` [Example 4, 3′-Hydroxy-5′-[4-[2-(2-methyl-5-nitro-imidazol-1-yl)ethyl]-1-piperazinyl]benzoxazinorifamycin], for which the MIC was 1 µg/mL (≈ 0.963 µM) in test [2], ≤ 0.03 µg/mL in test [3] (setting [9]), < 0.004 µg/mL in test [6] (setting [10]) and > 8 µg/mL in test [7] (setting [11]).
`CO[C@H]1/C=C/O[C@@]2(C)Oc3c(C)c(O)c4c(O)c(c(/C=N/N5CCN(C)CC5)c(O)c4c3C2=O)NC(=O)/C(C)=C\C=C\[C@H](C)[C@H](O)[C@@H](C)[C@@H](O)[C@@H](C)[C@H](OC(C)=O)[C@@H]1C` [rifampin, reference compound]: the MIC in test [1] is 0.06 µg/mL (≈ 0.0729 µM); in test [2], > 32 µg/mL; in test [3] (ATCC700392, agar dilution, read-out: MIC H. pylori ATCC# 700392) it was 0.12 µg/mL (≈ 0.146 µM); in test [4] (ATCC10211, microbroth dilution, read-out: MIC H. influenzae ATCC# 10211), 0.24 µg/mL (≈ 0.292 µM); in test [6] (ATCC29213, microbroth dilution, read-out: MIC S. aureus ATCC# 29213), 0.008 µg/mL (≈ 0.00972 µM); in test [7] (ATCC25922, microbroth dilution, read-out: MIC E. coli ATCC# 25922), 8 µg/mL (≈ 9.72 µM). The same compound showed an MIC in test [8] of 0.001 µg/mL (≈ 0.00122 µM).
